Reference: patent US7662778B2, “Histone deacetylase inhibitor and process for producing the same” (Riken, priority 2003, dated 2010)
Read-outs that look alike come from different tables or passages of the source. Where a SMILES comes first, the peptide text is derived from it. [ ]: non-standard residue; d: D form. Phe(4-NH2) = Nc1ccc(C[C@H](N)C(=O)O)cc1

Columns and labels:
[1] = tested on: normal human lung cells (TIG-3)
[2] = tested on: human wild-type p21 promoter; assay: p21 promoter-inducing activity (luciferase) in MFLL-9 cells; assay type: cell-based; conditions: Table 1; MFLL-9 cells, 18 hours; concentration corresponding to 50% of the maximum active value for TSA
Description: The HDAC inhibitory activity in vivo was measured using p21 promoter-inducing activity as an index, as shown below. The MFLL-9 cells employed for the experiments stably maintained fusion genes of human wild-type p21 promoter and luciferase (Dr. B. Vogelstaein). Using phenol red-free DMEM medium comprising 10% FBS, cultivation was carried out in a steam-saturated incubator at 37° C. with 5% carbon dioxide. The MFLL-9 cells were plated at a density of 85,000 cells/well on a 96-well microtiter plate, each in 99 μl of the above-mentioned medium. These were then cultivated for six hours. One μl of test compound solution was added to each well, which was then cultured for another 18 hours.
The intensity of luminescence caused by the product of the enzyme reaction for intracellular luciferase expression was measured using Luc Lite (Packard BioScience Company).
HDAC inhibitory activity in an in vivo system was measured using p21 promoter induction as index. The experimental method followed that of Example 11.

[3] = target: T1, human HDAC1 (Homo sapiens, UniProt Q13547); assay: HDAC inhibitory activity in vitro (coumarin-labeled acetylated histone peptide), HDAC1; assay type: biochemical; conditions: Table 1; 37° C., 30 minutes; read-out: IC50 (μM) HDAC1
T1 construct: FLAG; made in house; host or cells: 293T cells, transient transfection; anti-FLAG immunoprecipitation and FLAG peptide elution

[4] = tested on: human uterine cancer cells (HeLa); assay: Cytotoxicity test (XTT), HeLa; assay type: cell-based; conditions: 48 hours
[5] = target: T2, human HDAC4 (Homo sapiens, UniProt P56524); assay: HDAC inhibitory activity in vitro (coumarin-labeled acetylated histone peptide), HDAC4; assay type: biochemical
T2 construct: FLAG; made in house; host or cells: 293T cells, transient transfection; anti-FLAG immunoprecipitation and FLAG peptide elution

[6] = target: T3, mouse HDAC6 (Mus musculus, UniProt Q9Z2V5); assay: HDAC inhibitory activity in vitro (coumarin-labeled acetylated histone peptide), HDAC6; assay type: biochemical
T3 construct: HA; made in house; host or cells: 293T cells, transient transfection; anti-HA immunoprecipitation and HA peptide elution
T3 sequence (Q9Z2V5 1-1149): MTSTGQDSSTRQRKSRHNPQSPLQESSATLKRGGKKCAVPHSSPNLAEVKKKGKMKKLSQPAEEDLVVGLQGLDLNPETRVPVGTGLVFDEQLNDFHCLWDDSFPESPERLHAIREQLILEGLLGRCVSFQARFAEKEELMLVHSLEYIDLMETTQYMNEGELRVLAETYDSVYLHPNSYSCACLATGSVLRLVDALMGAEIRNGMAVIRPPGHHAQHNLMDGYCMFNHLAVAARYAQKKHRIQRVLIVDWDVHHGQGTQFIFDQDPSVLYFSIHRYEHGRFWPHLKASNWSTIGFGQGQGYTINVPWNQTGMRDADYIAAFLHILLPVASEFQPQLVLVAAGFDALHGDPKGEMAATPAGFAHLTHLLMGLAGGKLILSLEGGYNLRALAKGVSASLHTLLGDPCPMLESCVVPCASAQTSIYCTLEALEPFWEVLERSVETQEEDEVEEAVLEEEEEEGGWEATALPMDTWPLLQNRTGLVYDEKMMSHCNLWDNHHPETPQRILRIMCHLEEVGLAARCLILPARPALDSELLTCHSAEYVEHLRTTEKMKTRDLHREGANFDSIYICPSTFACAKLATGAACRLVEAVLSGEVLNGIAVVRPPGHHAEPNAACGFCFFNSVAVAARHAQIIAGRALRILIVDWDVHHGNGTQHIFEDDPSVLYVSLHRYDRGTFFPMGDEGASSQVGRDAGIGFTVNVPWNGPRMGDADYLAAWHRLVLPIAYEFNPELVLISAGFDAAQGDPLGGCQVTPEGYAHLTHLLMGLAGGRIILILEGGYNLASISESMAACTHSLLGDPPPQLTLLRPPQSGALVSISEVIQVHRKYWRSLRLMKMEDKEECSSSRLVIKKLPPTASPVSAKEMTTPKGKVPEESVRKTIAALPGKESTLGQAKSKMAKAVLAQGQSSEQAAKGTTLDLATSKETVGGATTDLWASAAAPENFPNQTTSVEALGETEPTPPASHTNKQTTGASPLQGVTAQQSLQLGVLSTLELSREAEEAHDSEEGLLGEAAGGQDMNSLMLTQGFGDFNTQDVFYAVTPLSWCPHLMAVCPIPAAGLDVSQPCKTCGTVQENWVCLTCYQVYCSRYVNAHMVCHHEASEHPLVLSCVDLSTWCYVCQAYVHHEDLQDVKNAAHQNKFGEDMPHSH

[7] = tested on: tubulin deacetylase; assay: Tubulin and histone acetylation level in HeLa cells by western blotting; assay type: cell-based, human; conditions: six hours, anti-acetylated lysine antibody, FIG. 4
Description: Tubulin and histone acetylation levels were measured by: (a) reacting a test compound with HeLa cells; and (b) confirming the tubulin and histone acetylation level by western blotting using anti-acetylated lysine antibodies. Specifically, human uterine cancer cells (HeLa) were cultured in a DMEM medium supplemented with 10% FBS at 37° C. in the presence of 5% carbon dioxide in a steam-saturated incubator. Two ml of the cells at a density of 15,000 cells/ml were plated onto a 6-well plate and cultured for 18 hours. Test compound solution was added to each culture and successively cultured for another six hours. The cells were washed with PBS, suspended in a lysis buffer (50 mM Tris-HCl (pH7.5), 120 mM NaCl, 5 mM EDTA, 0.5% Nonidet P-40), and then sonicated. The supernatant was collected by centrifugation, mixed with SDS bufer, and left at 100° C. for five minutes. The resulting sample was subjected to electroplioresis on a 15% SDS gel and transferred to a membrane film. This was treated with primary antibody “AKL5C1” (Japan Energy), and secondary antibody “anti-mouse” (LIFE SCIENCE), and then acetylation bands were detected by ECL (amersham pharmacia biotech) (FIG. 4).

[8] = amide bond, 12-membered ring, HATU/DIEA, DMF, 25.0 °C
[9] = Table 1, 37° C., 30 minutes, read-out: IC50 (μM) HDAC6
[10] = read-out: IC50 (nM) TIG-3, 48 hours, XTT

T2 sequence (P56524 whole entry): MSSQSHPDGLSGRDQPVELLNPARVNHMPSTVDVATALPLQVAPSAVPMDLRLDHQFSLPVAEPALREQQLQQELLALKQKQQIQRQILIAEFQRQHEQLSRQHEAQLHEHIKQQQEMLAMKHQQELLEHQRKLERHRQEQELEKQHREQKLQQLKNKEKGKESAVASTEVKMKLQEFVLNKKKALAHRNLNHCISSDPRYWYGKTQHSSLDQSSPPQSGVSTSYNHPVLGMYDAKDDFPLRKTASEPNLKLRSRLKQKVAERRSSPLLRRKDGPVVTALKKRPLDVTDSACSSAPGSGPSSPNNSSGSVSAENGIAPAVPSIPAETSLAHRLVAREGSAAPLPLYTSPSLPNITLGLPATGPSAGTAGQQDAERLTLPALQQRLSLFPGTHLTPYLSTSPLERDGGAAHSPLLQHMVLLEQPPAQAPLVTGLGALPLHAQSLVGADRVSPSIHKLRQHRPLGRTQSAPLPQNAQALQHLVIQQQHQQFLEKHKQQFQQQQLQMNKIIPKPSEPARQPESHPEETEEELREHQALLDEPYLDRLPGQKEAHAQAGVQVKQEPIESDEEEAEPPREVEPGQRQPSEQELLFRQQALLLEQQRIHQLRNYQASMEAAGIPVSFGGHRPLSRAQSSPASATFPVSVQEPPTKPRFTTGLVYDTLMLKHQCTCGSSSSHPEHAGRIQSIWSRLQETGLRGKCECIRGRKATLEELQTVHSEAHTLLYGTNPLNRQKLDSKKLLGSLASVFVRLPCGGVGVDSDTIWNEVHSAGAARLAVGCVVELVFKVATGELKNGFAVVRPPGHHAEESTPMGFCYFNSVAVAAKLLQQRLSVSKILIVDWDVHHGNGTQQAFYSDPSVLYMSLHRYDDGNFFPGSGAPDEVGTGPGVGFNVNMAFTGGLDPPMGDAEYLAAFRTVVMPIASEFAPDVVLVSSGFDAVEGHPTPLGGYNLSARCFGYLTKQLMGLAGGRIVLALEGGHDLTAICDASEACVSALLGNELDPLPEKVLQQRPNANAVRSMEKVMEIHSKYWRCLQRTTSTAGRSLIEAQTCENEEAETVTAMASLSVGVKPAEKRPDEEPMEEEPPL
T1 sequence (Q13547 whole entry): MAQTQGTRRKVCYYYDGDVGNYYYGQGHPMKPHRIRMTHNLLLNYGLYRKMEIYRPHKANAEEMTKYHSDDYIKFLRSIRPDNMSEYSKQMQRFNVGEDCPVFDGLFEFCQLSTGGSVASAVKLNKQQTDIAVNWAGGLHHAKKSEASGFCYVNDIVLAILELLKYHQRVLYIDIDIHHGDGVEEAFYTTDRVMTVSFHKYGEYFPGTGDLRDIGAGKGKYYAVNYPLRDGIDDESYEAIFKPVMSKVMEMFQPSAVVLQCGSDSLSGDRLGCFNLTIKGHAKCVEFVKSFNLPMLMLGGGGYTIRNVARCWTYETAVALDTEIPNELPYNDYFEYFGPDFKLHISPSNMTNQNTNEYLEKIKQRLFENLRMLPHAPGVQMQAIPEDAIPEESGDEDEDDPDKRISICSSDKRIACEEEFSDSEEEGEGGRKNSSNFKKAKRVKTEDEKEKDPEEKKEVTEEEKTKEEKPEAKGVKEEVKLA

Compound | IC50 ([1]; 48 h) [nM] | EC50 [2] [µM] | IC50 [4] [nM] | IC50 [6, 9] [µM] | other results
CC[C@H](C)[C@@H]1NC(=O)[C@@H](Cc2ccc(OC)cc2)NC(=O)[C@H](Cc2ccc(N)cc2)NC(=O)[C@H]2CCCN2C1=O [Aph, cyclo(-L-Aph-D-Tyr(Me)-L-Ile-D-Pro-)] (cyclo(I[dP][Phe(4-NH2)][dY](Me))) | > 50000 | > 100 | > 50000 | > 500 | IC50 [3]: > 500 µM; IC50 ([5]; Table 1, 37° C., 30 minutes, read-out: IC50 (μM) HDAC4): > 500 µM
CC[C@H](C)[C@@H]1NC(=O)[C@@H](Cc2ccc(OC)cc2)NC(=O)[C@H](CCCCCC(=O)C(F)(F)F)NC(=O)[C@H]2CCCN2C1=O [Tfk, cyclo(-L-Tfm-D-Tyr(Me)-L-Ile-D-Pro-)] | 87.1 | 3.09 | 8.8 | 1.44 | tubulin acetylation (tubulin deacetylase inhibition in the cells) [7]: induced high level of tubulin acetylation
CC(/C=C/C(=O)NO)=C\[C@@H](C)C(=O)c1ccc(N(C)C)cc1 [TSA, Trichostatin A, reference compound] |  | 0.77 | 12.3 |  | IC50 [1, 10]: 151 nM
CC[C@H](C)[C@@H]1NC(=O)[C@@H](Cc2ccc(OC)cc2)NC(=O)[C@H](CCCCCC(=O)C(F)(F)C(F)(F)F)NC(=O)[C@H]2CCCN2C1=O [Pfek, cyclo(-L-Pfe-D-Tyr(Me)-L-Ile-D-Pro-)] |  | > 100 | 616 |  | IC50 [1, 10]: 13400 nM; IC50 [5]: 1.22 µM; IC50 [6]: 5.72 µM
CC[C@H](C)[C@@H]1NC(=O)[C@@H](Cc2ccc(OC)cc2)NC(=O)[C@H](CCCCCCN(C=O)OCc2ccccc2)NC(=O)C2CCCCN2C1=O (mixture of isomers) [Cyclo(-L-A2oc(For, OBzl)-D-Tyr(Me)-L-Ile-DL-Pip-)] |  |  |  |  | ring closure, isolated yield ([8]; from H-dTyr(Me)-Ile-DL-Pip-A2oc(For,OBzl)-OH, 1.6 mM): 21%
CC[C@H](C)[C@@H]1NC(=O)[C@@H](Cc2ccc(OC)cc2)NC(=O)[C@H](CCCCCN(C=O)OCc2ccccc2)NC(=O)[C@@H]2CCCCN2C1=O [cyclo(-L-Hly(For, OBzl)-D-Tyr(Me)-L-Ile-L-Pip-)] |  |  |  |  | ring closure, isolated yield ([8]; from H-dTyr(Me)-Ile-Pip-Hly(For,OBzl)-OH?, 0.39 mM): 28%
CC[C@H](C)[C@@H]1NC(=O)[C@@H](Cc2ccc(OC)cc2)NC(=O)[C@H](CCCCSCC(=O)C(F)(F)F)NC(=O)[C@H]2CCCN2C1=O [Mtfk, cyclo(-L-Am6(Tfacet)-D-Tyr(Me)-L-Ile-D-Pro-)] | 468 | 6.64 | 52.5 | 0.95 | 
CC[C@H](C)[C@@H]1NC(=O)[C@@H](Cc2ccc(OC)cc2)NC(=O)[C@H](CCCCCN(C=O)OCc2ccccc2)NC(=O)[C@H]2CCCN2C1=O [cyclo(-L-Hly(For, OBzl)-D-Tyr(Me)-L-Ile-D-Pro-)] |  |  |  |  | ring closure, isolated yield ([8]; from H-dTyr(Me)-Ile-dPro-Hly(For,OBzl)-OH, 0.96 mM): 66%
